Assay results: patent US9127016B2, “Small molecule inhibitors of Dusp6 and uses therefor” (University of Pittsburgh—Of the Commonwealth System of …, priority 2009, dated 2015)
pIC50: −log10 of the molar value.

Experiments:
[1] = target: T1, recombinant His-tagged Dusp6 (Homo sapiens, UniProt Q16828); experiment: In vitro pERK2 dephosphorylation assay (Western blot); type: biochemical; conditions: 100 μM
T1 construct: His
T1 sequence (Q16828 1-381): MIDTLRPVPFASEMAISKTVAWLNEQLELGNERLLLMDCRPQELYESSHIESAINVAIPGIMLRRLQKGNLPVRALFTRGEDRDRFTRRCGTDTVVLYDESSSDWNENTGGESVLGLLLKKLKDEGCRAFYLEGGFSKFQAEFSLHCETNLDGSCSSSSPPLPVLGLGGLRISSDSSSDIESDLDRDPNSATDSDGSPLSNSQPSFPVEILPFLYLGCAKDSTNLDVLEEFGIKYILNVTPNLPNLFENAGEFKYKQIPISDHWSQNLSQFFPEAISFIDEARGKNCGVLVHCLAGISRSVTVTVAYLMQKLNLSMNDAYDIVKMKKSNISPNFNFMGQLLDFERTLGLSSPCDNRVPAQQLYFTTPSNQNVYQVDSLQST
Method: ERK dephosphorylation assays were performed as described previously with several modifications (Lazo, J. S. et al. J Pharmacol Exp Ther 322, 940-7 (2007)). Briefly, recombinant His-tagged Dusp6 (1.5 ng) was incubated for 20 minutes at 25° C. in the presence of 100 μM BCI, 100 μM ICD or 1 mM sodium orthovanadate. Tyrosine and threonine phosphorylated ERK2 (New England Biolabs; 10 ng) was added and reaction mixture (30 mM Tris-HCl, pH 7.0, 75 mM NaCl, 0.67 mM EDTA, 1 mM DTT and 0.033% bovine serum albumin) was incubated at 25° C. for a further 60 min. ERK desphosphorylation was determined by Western blotting using 10% Tris-glycine gels and a monoclonal phospho-p44/42 MAPK antibody (Cell Signaling) at 1:1000 dilution. Total ERK was measured as a loading control using an anti-ERK antibody (Cell Signaling).

Dusp6 = target: T2, Dusp6 (Homo sapiens, UniProt Q16828); experiment: Chemical complementation assay in HeLa cells, pERK restoration, Dusp6-Myc; type: cell-based; parameters: expressed in transfected cells; host or cells: HeLa cells, pcDNA3.1, FuGene 6; conditions: TPA stimulated
T2 sequence (Q16828 1-381): T1 sequence (Q16828 1-381)
Method: These experiments were carried out essentially as described26. HeLa cells were obtained from ATCC (Manassas, Va.) and maintained in a humidified atmosphere of 5% CO2 at 37° C., Dulbecco's […] (DMEM) supplemented with 10% fetal bovine serum (FBS, HyClone, Logan, Utah), and 1% penicillin-streptomycin (Life Technologies, Inc., Rockville, Md.). c-Myc-Dusp6 and c-Myc-Dusp1 (also known as CL100) (kindly provided by Dr. Stephen Keyse, University of Dundee) were subcloned into pcDNA3.1 for ectopic expression in mammalian cells50. […] Plates were analyzed by three-channel multiparametric analysis for p-ERK and c-Myc-DUSP intensities in an area defined by nuclear staining using the Compartmental Analysis Bioapplication on an ArrayScan II high-content reader (Cellomics, Pittsburgh, Pa.). Restoration of ERK phosphorylation by BCI in Dusp6 overexpressing cells was quantified by Kolmogorov-Smirnov (KS) statistics as described previously using DUSP-transfected and vehicle treated control wells26. One thousand individual cells were gated for Dusp-Myc expression based on c-Myc immunostaining and analyzed for ERK phosphorylation. […] To quantify restoration of Erk phosphorylation in the Dusp expressing cells after compound treatment, KS values for each condition were normalized to the average KS value from four wells transfected with Dusp1 or Dusp6 and treated with vehicle. […]

[2] = system: FGF signaling (d2EGFP reporter); experiment: BCI analog SAR: d2EGFP intensity in transgenic zebrafish embryos by densitometry; type: in vivo; conditions: 20 μM, 24 hpf embryos, 6 h; for Activity (BCI = 100): d2EGFP intensity in the dorsal region
Method: Transgenic zebrafish embryos (24 hpf) were treated with 20 μM solution of BCI analogs in 0.5% aq DMSO and fluorescence photomicrographs were taken after 6 h. The effectiveness of BCI analogs was evaluated by densitometry (ImageJ) of d2EGFP intensity in the dorsal region.

[3] = system: FGF target genes sef and spry4; experiment: Semi-quantitative RT-PCR of FGF target genes in treated embryos; type: in vivo, zebrafish; conditions: 24 hpf, 6 hours, 10 μM and 20 μM, n=3
Method: Zebrafish embryos were treated at 24 hpf for 6 hours with BCI at 10 μM and 20 μM followed by total RNA extraction with Trizol (Invitrogen). cDNA synthesis with SuperScript II Reverse Transcriptase (Invitrogen) was performed as described by manufacture's protocol and by Tsang et al. 17. For PCR reaction, HotMaster Taq (Eppendorf) was used with the following primers: […]
Cycle conditions were: 94° C. 30 sec, 55° C. 45 sec, 72° C. 40 sec, for 25 cycles. PCR products were resolved on 3% agarose gels.

| block of Dusp6 activity in chemical complementation assay (Dusp6) | Compound | suppression of Dusp6-mediated pERK2 dephosphorylation [1] | pIC50 (Dusp6; 15 min compound, read-out: IC50, Dusp6 inhibition (pERK restoration)) | Activity (BCI = 100) ([2]; listed as 3 (BCI)) | expression of sef and spry4 [3] | in vivo activity relative to BCI, in words [2] | Activity (BCI = 100) [2] |
| --- | --- | --- | --- | --- | --- | --- | --- |
| – | O=C1/C(=C/c2ccccc2)C(NC2CCCCC2)c2ccccc21 (centres unmarked) [Compound 3, (E)-2-benzylidene-3-(cyclohexylamino)-2,3-dihydro-1H-inden-1-one] | specifically suppressed Dusp6 activity | 4.80 | 100 | increase | – | – |
| did not block | O=C1CC(NC2CCCCC2)c2ccccc21 (centres unmarked) [Compound 17, 3-(Cyclohexylamino)-2,3-dihydro-1H-inden-1-one] | did not | – | – | – | inactive | 0 |
